Measurements: PMC9436819 (JACC: Basic to Translational Science, 2022)
Values joined by “and” are separate entries in the source; they are usually repeats but may differ in a detail not shown here. Equal values may be shown once.

What was measured:
[1] = test system: healthy adults; test: Echocardiography (core laboratory) pharmacodynamics, SAD cohorts; assay type: in vivo, human
Description: For PD assessments of LVEF, echocardiograms for the SAD and MAD cohorts were interpreted by the echocardiography core laboratory and used for all data analysis and dose-level review decisions, and immediate local interpretation of the echocardiograms was performed for safety monitoring. […] Echocardiograms on day 3 (48 hours after dosing) were obtained only if the 24-hour LVEF had not returned to near or above baseline, as determined by the investigator. In the MAD cohorts, echocardiograms were obtained on day -1; predose on day 1; at 1.5 hours postdose on days 2, 4, and 9; and at 1.5, 24, and 72 hours postdose on day 14 (for the 5-mg and 10-mg cohorts) or on day 17 (for the 7.5-mg cohort). Echocardiograms were obtained 3 days after the last dose (on day 17 or 20) only if the participant’s prior LVEF was not near or above baseline, as determined by the investigator.
Using echocardiography instrumentation certified for clinical use, echocardiographic images were obtained from standard views based on American Society of Echocardiography recommendations for chamber quantification.[19] To obtain the LVEF, the endocardial borders of 3 different cardiac cycles were traced at both end diastole and end systole from the apical 4- and 2-chamber views and LV end-diastolic volume (LVEDV) and LV end-systolic volume (LVESV), calculated using the Simpson’s method of discs algorithm. Ejection fraction was calculated in the standard manner: LVEF = (LVEDV − LVESV)/LVEDV. The intraobserver variability (coefficient of variation) for LVEF was 8%.
All participants who received ≥1 dose of the study drug and had ≥1 predose and ≥1 postdose echocardiographic measurements were included in the PD analysis set. […] Descriptive statistics of the echocardiographic parameters were generated using SAS, version 9.3 or higher. Dose-response analysis was performed using analysis of covariance to identify the least-squares mean difference (aficamten minus placebo), as described in the Supplemental Appendix. Analyses of concentration “bin” and exposure-response were also performed using analysis of covariance, as described in the Supplemental Appendix. SAS PROC MIXED was used for all comparative analyses.
Statistical A nalysis of P harmacodynamic (PD) P aram eters
To analyze the impact of drug dose on echocardiographic parameters in the SAD and MAD
cohorts, an inferential analysis was conducted on t he PD analysis set using linear mixed models
for rep eated -measur es an alysis of covarian ce ( AN COVA). The A NCOVA used baseline valu e as
a covariate, included treatment, time-point, and time-point-by- treatment interaction as fixed
effects, and ch ange f rom baseline as the d ependent variable. Th e unstructur ed varian ce-
covarian ce structu re w as used, and the model acco unted for the time- point r epeated m easur es.
The ANCOVA analysis was conducted separately for each study part and f or each PD p aram eter .
The least-squares means, the difference in least squares means (active minus placebo), and the
associated 2-sided 95% CIs were presented for each comparison.
Concentration bin analysis
An additional inferential analysis was performed i n the SAD and MAD cohorts , to evaluate the
analysis set. A concentrat ion bin ANCOVA was conducted using linear mi xed models for
repeat ed-measures an aly ses with concentr ation bin group as a fix ed ef fect, baseline PD
parameters as a covari ate, change f rom baseline as the dependent v ariable, and a random
intercept to adjust for the repeat ed measures. The unstructured variance-co variance structur e was
used.Plasma concentr ations of aficamten wer e paired with coincident PD parameters. The
ANCOVA compared the change in PD parameters between each bin versus the pooled placebo
group. The least-squ ares means, the differen ce in l east squares m eans (bin group minus placebo),
and the associat ed 2-sided 95% CIs were pres ented for each comparison. The ANCOVA analysis

[2] = test system: rat and dog; details: cited from earlier work
[3] = SAD 50 mg (n = 11), […] postdose

CCc1nc(-c2ccc3c(c2)CC[C@H]3NC(=O)c2cnn(C)c2)no1 [Aficamten]
Participants with absolute reduction in LVEF of ≥5% from baseline ([1]; SAD 1 mg): no participants | Participants with absolute reduction in LVEF of ≥5% from baseline ([1]; SAD 3 mg, 1 of 6): 17% | Participants with absolute reduction in LVEF of ≥5% from baseline ([1]; SAD 10 mg): no participants | Participants with absolute reduction in LVEF of ≥5% from baseline ([1]; SAD 25 mg): no participants | Participants with absolute reduction in LVEF of ≥10% ([1]; SAD 40 mg, 1 of 6): 17% | Participants with absolute reduction in LVEF of ≥5% from baseline ([1]; SAD 40 mg, 2 of 6): 33% | A (peak A wave velocity), mean [1, 3]: 54.5 cm/s | A (peak A wave velocity), mean change from baseline [1, 3]: 2.5 cm/s | E (peak E wave velocity), mean [1, 3]: 64.0 cm/s | E (peak E wave velocity), mean change from baseline [1, 3]: -2.7 cm/s | Heart rate, mean [1, 3]: 62.3 bpm | Heart rate, mean change from baseline [1, 3]: 0.5 bpm | IVCT, mean [1, 3]: 42.6 ms | IVCT, mean change from baseline [1, 3]: 0.4 ms | IVRT, mean [1, 3]: 69.3 ms | IVRT, mean change from baseline [1, 3]: 0.5 ms | LAV, mean [1, 3]: 35.7 mL | LAV, mean change from baseline [1, 3]: 0.0 mL | LV CO, mean [1, 3]: 3240 mL | LV CO, mean change from baseline [1, 3]: -346 mL | LV EDV, mean [1, 3]: 99.8 mL | LV EDV, mean change from baseline [1, 3]: 6.6 mL | LV ESV, mean [1, 3]: 39.7 mL | LV ESV, mean change from baseline [1, 3]: 8.1 mL | LV ET, mean [1, 3]: 328 ms | LV SV, mean [1, 3]: 52.6 mL | LV SV, mean change from baseline [1, 3]: -6.2 mL | LVEF, mean [1, 3]: 60.5% | LVEF, mean change from baseline [1, 3]: -5.8% | e' lateral, mean [1, 3]: 10.2 cm/s | e' lateral, mean change from baseline [1, 3]: -1.3 cm/s | Participants with reduction in LVEF to <50% ([1]; SAD 50 mg, 2 of 11, core laboratory): 18% | Participants with absolute reduction in LVEF of ≥5% from baseline ([1]; SAD 50 mg, 7 of 11): 64% | Mean maximum reduction in LVEF from baseline ([1]; SAD 50 mg, […] postdose): 5.8% | Reduction in LVEF, placebo corrected least-squares mean difference ([1]; SAD 50 mg, […] postdose): 5.5% | LVEF of the individual participants with LVEF <50% ([1]; SAD 50 mg, per core laboratory assessment): 48.2% and 45.5% | Participants with absolute reduction in LVEF of ≥5% from baseline ([1]; SAD 75 mg, 1 of 1): 100% | Participants with reduction in LVEF to <50% ([1]; SAD 75 mg, 1 of 1, core laboratory): 100% | Participants with absolute reduction in LVEF of ≥10% ([1]; SAD 75 mg, 1 participant): 100% | LVEF of the participant (only participant with LVEF <45%) ([1]; SAD 75 mg, core laboratory): < 45% | Relationship of LVEF to plasma concentration ([1]; SAD cohorts, highest concentration bin 122-524 ng/mL P < 0.001, concentration-slope analysis P = 0.003): statistically significant decrease | Time for reversal of decreases in LVEF to <50% ([1]; following single doses): ≤ 6 h | Time for LVEF to return to baseline ([1]; participants whose LVEFs fell below 50%): ≤ 24 h | Time after dosing at which LVEF <50% was noted ([1]; single 50 or 75 mg): approximately 1.5 hours | Exposure-response relationship shallower than that of mavacamten ([2]; comparison in rats and dogs): roughly 3 fold | Ventricular contractility ([2]; rat and dog): reduces ventricular contractility in a dose- and exposure-dependent manner
